# Assay results from the OPERA property sets (Mansouri et al. 2018).
# Settings: not given
SMILES,logP,solubility
CN(C(=O)C(Cl)Cl)c1ccc(O)cc1,1.78,–
CN(C)CCCN1c2ccccc2Sc2ccccc21.Cl,2.94,–
c1ccc2cc3cc4c(ccc5ccccc54)cc3cc2c1,6.81,–
C[C@H](CS)C(=O)N1CCC[C@H]1C(=O)O,0.34,–
CCCN1CCCC1CNC(=O)c1cc(S(N)(=O)=O)ccc1OC (stereo not given),2.16,–
CCC(Oc1ccc(Cl)cc1C)C(=O)O (stereo not given),3.47,–
CC(=O)OCN1C(=O)C(C)=C(C)C1=O,0.65,–
CC1(C)[C@H](/C=C(\Cl)C(F)(F)F)[C@@H]1C(=O)O[C@H](C#N)c1cccc(Oc2ccccc2)c1,–,1.11e-05 mM
Oc1cccc2ncccc12,1.85,–
CC(=O)c1cccc(NCc2cnc3nc(N)nc(N)c3c2C)c1,1.46,–
O=[N+]([O-])c1cc(Cl)cc(Cl)c1,3.09,–
CC(=O)OCCOCn1cnc2c(=O)[nH]c(N)nc21,-1.07,–
Clc1cc2c(Cl)ccc(Cl)c2cc1Cl,5.81,–
O=C(OCc1ccccc1)c1ccc(O)cc1,3.56,–
CSc1ccc(C(N)=S)cc1,2.01,–
COC1=C(OC)C(=O)C=CC1=O,0.34,–
N=C(N)NN=Cc1cccc([N+](=O)[O-])c1,0.01,–
Cc1cn([C@H]2C=C[C@@H](CO)O2)c(=O)[nH]c1=S,0.09,–
Cc1cccc2c1Cc1ccccc1-2,4.97,–
CC(C)CC=O,–,163 mM
CCCCCCCCCCCCCCO,6.03,–
CCCCCCOCCO,1.86,–
COc1cc(Cl)c(Cl)c(Cl)c1,4.22,–
[N-]=[N+]=CC(=O)OC[C@H](N)C(=O)O,-2,–
NC(=O)CC[C@H](NS(=O)(=O)c1ccccc1)C(=O)O,0.33,–
CCCCC1CO1 (stereo not given),1.95,–
OCc1c(F)cccc1F,1.12,–

SMILES,logP,solubility
CNS(=O)(=O)Cc1ccc2[nH]cc(CCN(C)C)c2c1,0.93,–
NS(=O)(=O)c1nn2c(=Nc3ccc(F)cc3)snc2s1,2.81,–
N#CC(C#N)=Cc1ccc(I)o1,2.42,–
C=CCOc1ccccc1OCC(CNC(C)C)OC(=O)CCC (stereo not given),3.95,–
N#CCCCCCCCCC#N,1.75,–
COC(=O)c1ccccc1CS(N)(=O)=O,0.37,–
O=[N+]([O-])c1ccc2c(c1)-c1ccc([N+](=O)[O-])c3cccc-2c13,4.44,–
O=C(Nc1ccc(O)cc1)C(Cl)Cl,1.6,–
CC(C)N(C(=O)COc1nnc(C(F)(F)F)s1)c1ccc(F)cc1,3.2,–
COC(=O)c1cc2ccccc2o1,2.53,–
CC(C)C1(C)N=C(c2ncccc2C(=O)O)NC1=O (stereo not given),0.22,–
O=C([O-])c1ccccc1.[Na+],–,3860 mM
O=P(O)(O)CN(CP(=O)(O)O)CP(=O)(O)O,-3.53,–
CC(=O)OCN1C(=O)NC(c2ccccc2)(c2ccccc2)C1=O,2.23,–
Clc1ccc2c(ccc3ccccc32)c1,5.16,–
CC(C(=O)O)c1ccc2oc(-c3ccc(Cl)cc3)nc2c1 (stereo not given),3.23,–
O=C(O)C(c1ccc(Cl)cc1)c1ccc(Cl)cc1,4.64,–
CCCCC(=O)CCCC,2.88,–
O=c1cc(CO)occ1O,-0.64,–
NC(=S)Nc1cccc2ccccc12,1.65,–
CC(=O)OCCC(C)C,2.25,–
CC(=O)Oc1ccc(OCCN(C)C)cc1C,1.64,–
Cc1ccc(N)cc1C,1.84,–
COc1ccc2oc(N(N)CCC#N)nc2c1,0.98,–
O=c1ccn(C2OC(CO)CC2F)c(=O)[nH]1 (stereo not given),-0.87,–
Clc1cc2c(Cl)c(Cl)c(Cl)c(Cl)c2cc1Cl,7.7,–
COc1cccc(N=C=S)c1,3.68,–

SMILES,logP,solubility
S=C=Nc1ccc(I)cc1,4.22,–
CC(O)CNc1ncc(-c2ccncc2)cc1C#N (stereo not given),0.79,–
CC(C)CC(=O)Oc1ccccc1,3.18,–
Sc1nc2ccccc2s1,2.42,–
CCCCCCOc1ccc(N)cc1,3.64,–
COC(=O)CCCCC(=O)OC,–,34.4 mM
CCN1CC=C(c2ccccc2)CC1,3.18,–
COc1ccc([N+](=O)[O-])cc1NC(C)=O,1.6,–
C=CC(N)CCC(=O)O (stereo not given),-2.16,–
Cc1cccc([N+](=O)[O-])c1C,2.83,–
CNC(=O)CCC(=O)c1cccnc1,-0.69,–
Cc1cccc(C(C)C)c1,–,0.317 mM
CCCCCCCCCC(C)=O,4.09,–
N[C@@H](Cc1cnc[nH]1)C(=O)O,-3.32,–
Cc1c(CNc2ccc(Cl)cc2)cnc2nc(N)nc(N)c12,2.03,–
CC(C)NCc1ccccc1,1.83,–
CCN1CCCC1CNC(=O)c1c(OC)ccc(Br)c1O (stereo not given),2,–
CC(C)(C)c1cccc(OP(=O)(Oc2ccccc2)Oc2ccccc2)c1,5.12,–
Clc1ccc(O[Si]23OCCN(CCO2)CCO3)cc1,0.6,–
CCCCOC(=O)c1ccccc1O,4.63,–
CCCCc1ccc(Cn2cncn2)cc1,2.81,–
O=C(O)c1nc(Cl)ccc1Cl,1.06,–
CCCC(CCC)=NNC(=N)N,1.73,–
CC1=CC(=O)C(C)=C(C)C1=O,1.82,–
CN1CC=C(c2ccc(N)cc2)CC1,1.48,–
CCN(CC)CCCC(C)N=c1cc2n(-c3ccc(Cl)cc3)c3ccccc3nc-2cc1Nc1ccc(Cl)cc1 (stereo not given),7.92,–
CCC(=O)OCN1C(=O)NC(c2ccccc2)(c2ccccc2)C1=O,2.8,–

SMILES,logP,solubility
CCCOC(=O)c1cc(=O)[nH]c(=O)[nH]1,1.1,–
Clc1cc(Cl)c(Oc2ccccc2)cc1Cl,5.44,–
NS(=O)(=O)c1nn2c(=Nc3cccc(Cl)c3)snc2s1,3.5,–
O=c1[nH][nH]c(=O)c2ccccc12,0.11,–
c1ccc2c(c1)ccc1nc3c(ccc4ccccc43)cc12,5.73,–
CCCCCN(CCCCC)N=O,3.86,–
CC1COCc2cc3c(cc21)C(C)(C)C(C)C3(C)C (stereo not given),5.9,–
N#CCCCCC#N,-0.32,–
C[N+](C)(C)CCCl.[Cl-],-3.8,–
CCCCC[C@H](O)/C=C/[C@@H]1[C@@H](C/C=C\CCCC(=O)O)[C@@H](O)C[C@H]1O,4.39,–
Clc1ccc(Cl)c(NC2=NCCN2)c1Cl,2.46,–
CN1C(=O)CCC1(O)c1cccnc1 (stereo not given),-0.57,–
NS(=O)(=O)c1nc2ccc([N+](=O)[O-])cc2s1,1.36,–
CC(C)(C)C1CCC(O)CC1 (stereo not given),3.23,–
CCC(CO)(CO)CO,-1.48,–
ClC1=C(Cl)C2(Cl)C3C(Cl)C(Cl)CC3C1(Cl)C2(Cl)Cl (stereo not given),6.16,–
CC(CCC(=O)O)C1CCC2C3C(O)C(O)C4CC(O)CCC4(C)C3CCC12C (stereo not given),2.8,–
CCN1CCC(CNC(=O)c2cc(S(=O)(=O)CC)ccc2OC)C1 (stereo not given),1.31,–
CSc1nc(N)nc(C(Cl)(Cl)Cl)n1,3.12,–
CC(C)c1ccc(NC(=O)CN(CC(=O)O)CC(=O)O)cc1Br,-0.08,–
CCCCCCN1CC(C(=O)O)CC1=O (stereo not given),1.6,–
COc1ccc(N=C=S)cc1,3.58,–
CN(CCO)C(=O)COC(=O)c1ccccc1O,0.86,–
O=C1CC[C@@]2(O)[C@H]3Cc4ccc(O)c5c4[C@@]2(CCN3CC2CC2)[C@H]1O5,1.92,–

# Same assay, conditions: 20 °C
row,SMILES,solubility
1,CCOC(C)(C)CC,3.44 mM
2,O=C(O)c1ccccn1,7800 mM
3,CCc1ccc(C)nc1,99 mM
4,CCC(CO)[N+](=O)[O-] (stereo not given),453 mM
5,Oc1cc(O)c2ccccc2c1,11.2 mM
6,N#CCCCCC#N,740 mM
7,CC(C)(C)C1CCC(O)CC1 (stereo not given),0.64 mM

# Same assay, conditions: 22 °C
row,SMILES,solubility
1,Clc1c(Cl)c(Cl)c2ccccc2c1Cl,1.6e-05 mM
2,CCOC(=O)CC(SP(=O)(OC)OC)C(=O)OCC (stereo not given),23.9 mM

# Same assay, conditions: 23 °C
row,SMILES,solubility
1,CN(N=O)C(N)=O,140 mM
2,CCC(C#N)CC#N (stereo not given),203 mM

# Same assay, conditions: 23.0 °C
row,SMILES,log10 OH rate constant (cm³/molecule/s)
1,CC(=O)C(C)CO (stereo not given),-10.8
2,CC1=CC[C@@]23CC1C(C)(C)[C@@H]2CC[C@H]3C,-10.2
3,CCC(C)(O)CC(C)C (stereo not given),-10.9

# Same assay, conditions: 24 °C
row,SMILES,solubility
1,Sc1nc2ccccc2s1,0.658 mM

# Same assay, conditions: 25 °C
row,SMILES,solubility
1,CCCCC(C)CCC (stereo not given),0.000897 mM
2,CCN(CCO)c1ccccc1,12.1 mM
3,CCCCCCO[N+](=O)[O-],0.747 mM
4,CC(C)(C)c1cccc(O)c1,13.8 mM
5,CC(C)(C)NCC(O)COc1cccc2c1C[C@H](O)[C@H](O)C2 (stereo not given in full),26.9 mM
6,Brc1ccc(I)cc1,0.0312 mM
7,CC=CC#N,373 mM
8,CN(C)c1ccccc1,12 mM
9,O=[N+]([O-])c1ccccc1,17 mM
10,CCC1CO1 (stereo not given),1040 mM
11,CCCCC(CC)COC(=O)c1ccccc1C(=O)OCC(CC)CCCC (stereo not given),0.000108 mM
12,C[C@]12C[C@H](O)[C@H]3[C@@H](CCC4=CC(=O)CC[C@@]43C)[C@@H]1CC[C@@H]2C(=O)CO,0.574 mM
13,ClC1=C(Cl)C2(Cl)C3CCC4C(CCC3C1(Cl)C2(Cl)Cl)C1(Cl)C(Cl)=C(Cl)C4(Cl)C1(Cl)Cl (stereo not given),6.73e-11 mM
14,CCCCC(=O)O[C@]1(C(=O)CO)[C@@H](C)C[C@H]2[C@@H]3CCC4=CC(=O)C=C[C@]4(C)[C@@]3(F)[C@@H](O)C[C@@]21C,0.0195 mM
15,CC1COCc2cc3c(cc21)C(C)(C)C(C)C3(C)C (stereo not given),0.00677 mM
16,CCCCOC(=O)COc1ccc(Cl)cc1Cl,0.166 mM
17,CC(C)NC(C)C,1090 mM
18,ClC1=C(Cl)C2(Cl)C3C(Cl)C(Cl)CC3C1(Cl)C2(Cl)Cl (stereo not given),0.000137 mM
19,O=C1CCO1,5130 mM
20,CCCCOC(=O)c1ccccc1,0.331 mM
21,OCC(CO)(CO)COCC(CO)(CO)CO,11 mM
22,CCF,44.9 mM

# Same assay, conditions: 25.0 °C
row,SMILES,log10 OH rate constant (cm³/molecule/s)
1,COCOC,-11.3
2,CC1OCCO1,-11
3,CC(F)(F)CC(F)(F)F,-14.1
4,c1ccc2[nH]ccc2c1,-9.81
5,CNC(=O)OC,-11.4
6,FC(F)(Cl)C(Cl)Cl,-13.3
7,CCNC(=O)OC,-11
8,COC(=O)CCCCC(=O)OC,-11.1
9,O=CC(F)(Cl)Cl,-11.9
10,CCBr,-12.5
11,CCCc1c(F)c(F)c(F)c(F)c1F,-11.5
12,CC1CCCO1 (stereo not given),-10.7
13,CCCBr,-11.9
14,CC(Cl)C(C)Cl (stereo not given),-12

# Same assay, conditions: 27.0 °C
row,SMILES,log10 OH rate constant (cm³/molecule/s)
1,O=Cc1ccco1,-10.5

# Same assay, conditions: 30 °C
row,SMILES,solubility
1,Cc1ccc([N+](=O)[O-])cc1,3.22 mM

# Same assay, conditions: pH 7.0
row,SMILES,logD
1,Cc1nn(-c2cc(NS(C)(=O)=O)c(Cl)cc2Cl)c(=O)n1C(F)F,0.99

# Same assay, conditions: pH 7.4
row,SMILES,logD
1,N[C@@H](Cc1ccc(N(CCCl)CCCl)cc1)C(=O)O,-0.52
